In this assay the target is SARS-CoV-2 3CLpro (Severe acute respiratory syndrome coronavirus 2, UniProt P0DTD1). Kind of assay: biochemical. The assay is classed as biochemical. Set-up: Replicate_1 / Replicate_2 / mean / mean (LOPAC_screen_w_protease): unit not given here. Particulars: for inhibition at 5 µM: 4 h.
Where [1] appears, read: LOPAC1280 primary screen with protease, 5 µM compound, replicate 1, read-out: Replicate_1 (LOPAC_screen_w_protease).
The mark [2] stands for this setting: LOPAC1280 primary screen with protease, 5 µM compound, replicate 2, read-out: Replicate_2 (LOPAC_screen_w_protease).
[3] abbreviates: LOPAC1280 primary screen with protease, 5 µM compound, mean of the two replicates.
The mark [4] stands for this setting: sheet LOPAC_screen_w_protease, primary screen at 5 µM, mean of two replicates.
The mark [5] stands for this setting: sheet LOPAC_screen_w_protease, primary screen at 5 µM, replicate 1.
Where [6] appears, read: sheet LOPAC_screen_w_protease, primary screen at 5 µM, replicate 2.
[7] abbreviates: LOPAC1280 primary screen with protease, 5 µM compound, replicate 1.
Where [8] appears, read: LOPAC1280 primary screen with protease, 5 µM compound, replicate 2.
Where [9] appears, read: LOPAC1280 primary screen with protease, 5 µM compound, mean of two replicates.
[10] abbreviates: sheet LOPAC_screen_w_protease, primary screen with protease, compound at 5 µM, mean of two replicates.
Setting [11] is: sheet LOPAC_screen_w_protease, primary screen with protease, compound at 5 µM, replicate 1.
Where [12] appears, read: sheet LOPAC_screen_w_protease, primary screen with protease, compound at 5 µM, replicate 2.
[13] abbreviates: sheet LOPAC_screen_w_protease, LOPAC1280 primary screen at 5 µM, with protease, mean of the two replicates.
Where [14] appears, read: sheet LOPAC_screen_w_protease, LOPAC1280 primary screen at 5 µM, with protease, replicate 1.
Setting [15] is: sheet LOPAC_screen_w_protease, LOPAC1280 primary screen at 5 µM, with protease, replicate 2.
Where [16] appears, read: sheet LOPAC_screen_w_protease, primary screen with protease, mean of two replicates.
The mark [17] stands for this setting: sheet LOPAC_screen_w_protease, primary screen with protease, replicate 1.
The mark [18] stands for this setting: sheet LOPAC_screen_w_protease, primary screen with protease, replicate 2.

Structures can show the parent of a compound that is named as a salt. Where two headings read alike, the source gives them in different places.

Take `Oc1ccc2c3c1O[C@H]1c4oc5ccccc5c4C[C@@]4(O)[C@@H](C2)N(CC2CC2)CC[C@]314` [Naltriben methanesulfonate]: the inhibition at 5 µM stood at 4.4% (read-out: Replicate_1), 3% (read-out: Replicate_2) and 3.7% (read-out: mean).

Regarding `O=C(O)C1=CCNCC1` [Isoguvacine hydrochloride], the inhibition at 5 µM by setting is: under setting [1], 2.64%; under setting [2], 1.29%. The “mean (LOPAC_screen_w_protease)” value under setting [3] came out at 1.964.

`CC(CN(C)C)CN1c2ccccc2CCc2ccccc21` (stereo not drawn) [Trimipramine maleate]: the inhibition at 5 µM is, setting by setting: (sheet LOPAC_screen_w_protease, primary screen with protease, mean of two replicates, read-out: mean) 2.36%; (sheet LOPAC_screen_w_protease, primary screen with protease, replicate 1, read-out: Replicate_1) 3.17%; (sheet LOPAC_screen_w_protease, primary screen with protease, replicate 2, read-out: Replicate_2) 1.55%.

For the compound `COc1ccc2c(c[n+](C)c3c4cc5c(cc4ccc23)OCO5)c1OC` [Chelerythrine chloride], the inhibition at 5 µM amounted to 11.5% (sheet LOPAC_screen_w_protease, primary screen at 5 µM, mean of two replicates, read-out: mean (LOPAC screen with protease)); 12.7% (sheet LOPAC_screen_w_protease, primary screen at 5 µM, replicate 1, read-out: Replicate_1 (LOPAC screen with protease)); 10.3% (sheet LOPAC_screen_w_protease, primary screen at 5 µM, replicate 2, read-out: Replicate_2 (LOPAC screen with protease)).

For `Cc1cc(N)c2ccccc2[n+]1CCCCCCCCCCCCCC[n+]1c(C)cc(N)c2ccccc21.[I-].[I-]` [Dequalinium analog, C-14 linker], the “mean (LOPAC screen with protease)” value under setting [4] was 11.1281. Under setting [5], the “Replicate_1 (LOPAC screen with protease)” value was 10.1675. For the same compound, under setting [6], the “Replicate_2 (LOPAC screen with protease)” value was found to be 12.0887.

As for `CC(C)NCC(O)COc1cccc2[nH]ccc12` (stereo not drawn) [S(-)-Pindolol], under setting [3], the “mean (LOPAC_screen_w_protease)” value was determined as 1.809. The “Replicate_1 (LOPAC_screen_w_protease)” value under setting [7] turned out to be 1.519. Moreover, under setting [8], the “Replicate_2 (LOPAC_screen_w_protease)” value is 2.1. For the same compound, the mean (sheet LOPAC_screen_w_protease, primary screen with protease, 5 µM, mean of two replicates) turned out to be 0.4162. Under “sheet LOPAC_screen_w_protease, primary screen with protease, 5 µM, replicate 1”, this compound returned a Replicate_1 of 1.799. In addition, the Replicate_2 (sheet LOPAC_screen_w_protease, primary screen with protease, 5 µM, replicate 2) is listed as -0.9667.

For the compound `Cl.c1ccc2c(N3CCNCC3)cccc2c1` [1-(1-Naphthyl)piperazine hydrochloride], under setting [9], the “mean (LOPAC_screen_w_protease)” value was 1.563. The “Replicate_1 (LOPAC_screen_w_protease)” value under setting [7] was determined as 4.027. For the same compound, the “Replicate_2 (LOPAC_screen_w_protease)” value under setting [8] is given as -0.9014.

`NCCNC(=O)Cc1ccc(NC(=O)Cc2ccc(Nc3ncnc4c3ncn4[C@@H]3O[C@H](CO)[C@@H](O)[C@H]3O)cc2)cc1` [Adenosine amine congener] registered a mean under setting [10] of 2.686. The compound also gave a Replicate_1 under setting [11] of 3.268. Moreover, under setting [12], the Replicate_2 worked out at 2.1037.

In the case of `Nc1nc(O)c2ncn(COC(CO)CO)c2n1` [Ganciclovir], the inhibition at 5 µM by setting is: (sheet LOPAC_screen_w_protease, LOPAC1280 primary screen at 5 µM, with protease, mean of the two replicates, read-out: mean) 0.74%; (sheet LOPAC_screen_w_protease, LOPAC1280 primary screen at 5 µM, with protease, replicate 1, read-out: Replicate_1) 1%; (sheet LOPAC_screen_w_protease, LOPAC1280 primary screen at 5 µM, with protease, replicate 2, read-out: Replicate_2) 0.479%.

With `COc1cc2nc(N3CCN(C(=O)OCc4ccccc4)C(C(=O)NC(C)(C)C)C3)nc(N)c2cc1OC` [L-765,314], the mean (sheet LOPAC_screen_w_protease, LOPAC1280 at 5 µM, mean of two replicates) is recorded as 1.212. Besides, the Replicate_1 (sheet LOPAC_screen_w_protease, LOPAC1280 at 5 µM, replicate 1) stood at 3.331. This compound also returned a Replicate_2 (sheet LOPAC_screen_w_protease, LOPAC1280 at 5 µM, replicate 2) of -0.9073.

Turning to `NCCc1ccc(O)c(O)c1` [Dopamine hydrochloride], the inhibition at 5 µM by setting is: (read-out: Replicate_1 (LOPAC screen with protease)) 16.2%; (read-out: Replicate_2 (LOPAC screen with protease)) 14.6%; (read-out: mean (LOPAC screen with protease)) 15.4%.

`CCCCCCCCCCCCCC(=O)O[C@@H]1[C@@H](C)[C@@]2(O)[C@@H](C=C(CO)C[C@]3(O)C(=O)C(C)=C[C@@H]23)[C@@H]2C(C)(C)[C@]12OC(C)=O` [Phorbol 12-myristate 13-acetate]: the inhibition at 5 µM reads like this: (read-out: Replicate_1) 1.97%; (read-out: Replicate_2) -0.596%; (read-out: mean) 0.686%.

For the compound `N[C@@H](CS(=O)O)C(=O)O` [L-Cysteinesulfinic Acid], the “mean (LOPAC_screen_w_protease)” value under setting [9] is reported as 1.669. The “Replicate_1 (LOPAC_screen_w_protease)” value under setting [7] is reported as 1.739. For the same compound, the “Replicate_2 (LOPAC_screen_w_protease)” value under setting [8] stood at 1.598.

With `N[C@H](C(=O)O)[C@H]1C[C@@H]1C(=O)O`, the Replicate_1 was 1.266, the Replicate_2 came to 1.079 and the mean came to 1.172.

In the case of `CC(C)NCC(O)c1ccc(NS(C)(=O)=O)cc1.Cl` (racemic) [(±)-Sotalol hydrochloride], under setting [9], the “mean (LOPAC_screen_w_protease)” value came out at 1.4398. In addition, the “Replicate_1 (LOPAC_screen_w_protease)” value under setting [7] came out at 1.054. Moreover, the “Replicate_2 (LOPAC_screen_w_protease)” value under setting [8] amounted to 1.826.

Compound `CC[C@@H]1Cc2cc(O)ccc2C2=C1c1ccc(O)cc1C[C@H]2CC` came in with a mean (sheet LOPAC_screen_w_protease, primary screen of LOPAC1280 at 5 µM with protease, mean of the two replicates) of 3.66. The Replicate_1 (sheet LOPAC_screen_w_protease, primary screen of LOPAC1280 at 5 µM with protease, replicate 1) was determined as 4.43. Where the note is “sheet LOPAC_screen_w_protease, primary screen of LOPAC1280 at 5 µM with protease, replicate 2”, this compound registered a Replicate_2 of 2.89.

As for `O=C(O)c1cc(=O)c2ccccc2[nH]1` [Kynurenic acid], the inhibition at 5 µM was found to be 3.13% under setting [1] and 0.793% under setting [2]. Further, the “mean (LOPAC_screen_w_protease)” value under setting [3] is listed as 1.961.

Regarding `Cl.c1ccc(CN2CCC3(CCCc4ccccc43)CC2)cc1` [L-687,384 hydrochloride], under setting [13], the mean is given as 0.6815. Further, the Replicate_1 under setting [14] is 0.6204. Under setting [15], this compound registered a Replicate_2 of 0.7425.

As for `COc1cc(Cc2cnc(N)nc2N)cc(OC)c1OC` [Trimethoprim], the inhibition at 5 µM by setting is: (read-out: Replicate_1) -0.343%; (read-out: Replicate_2) -3.24%; (read-out: mean) -1.79%.

On to `CC[C@H](C)[C@H]1O[C@]2(CC[C@@H]1C)C[C@@H]1C[C@@H](C/C=C(\C)[C@@H](O[C@H]3C[C@H](OC)[C@@H](O[C@H]4C[C@H](OC)[C@@H](O)[C@H](C)O4)[C@H](C)O3)[C@@H](C)/C=C/C=C3\CO[C@@H]4[C@H](O)C(C)=C[C@@H](C(=O)O1)[C@]34O)O2` [Ivermectin], for which, under setting [10], the mean is 2.889. Moreover, the Replicate_1 under setting [11] was determined as 2.826. Also, the Replicate_2 under setting [12] turned out to be 2.952.

Under setting [10], `N[C@H](CCCCCP(=O)(O)O)C(=O)O` [D(-)-2-Amino-7-phosphonoheptanoic acid] displayed a mean of 3.051. The same compound had a Replicate_1 under setting [11] of 3.469. Moreover, the Replicate_2 under setting [12] was 2.633.

`COc1cccc(C(=O)NCCN2CCN(c3ccc(Cl)cc3)CC2)c1` gave a mean under setting [16] of 2.269. The same compound had a Replicate_1 under setting [17] of 1.008. This compound yielded a Replicate_2 under setting [18] of 3.529.

In the case of `C1COC(NC(C2CC2)C2CC2)=N1` [Rilmenidine hemifumarate], the inhibition at 5 µM reads like this: under setting [1], 4.65%; under setting [2], -0.41%. Further, the “mean (LOPAC_screen_w_protease)” value under setting [3] was 2.121.

Regarding `C[C@@H](N)[C@H]1CC[C@H](C(=O)Nc2ccncc2)CC1.Cl.Cl` [Y-27632 dihydrochloride], under setting [9], the “mean (LOPAC_screen_w_protease)” value is 1.325. Under setting [7], the “Replicate_1 (LOPAC_screen_w_protease)” value is recorded as 2.12. For the same compound, under setting [8], the “Replicate_2 (LOPAC_screen_w_protease)” value was 0.5298.

Consider `CN(C)CCOC(C)(c1ccccc1)c1ccccn1` (stereo not drawn) [Doxylamine succinate], for which the inhibition at 5 µM reads like this: (sheet LOPAC_screen_w_protease, LOPAC1280 at 5 µM, mean of two replicates, read-out: mean) 1.3%; (sheet LOPAC_screen_w_protease, LOPAC1280 at 5 µM, replicate 1, read-out: Replicate_1) 1.58%; (sheet LOPAC_screen_w_protease, LOPAC1280 at 5 µM, replicate 2, read-out: Replicate_2) 1.01%.

With `CN1CC[C@@]2(C)c3cc(O)ccc3N(C)[C@@H]12.O=C(O)/C=C/C(=O)O` [(-)-Eseroline fumarate], the “mean (LOPAC screen with protease)” value under setting [4] is given as 88.3904. In addition, the “Replicate_1 (LOPAC screen with protease)” value under setting [5] came to 89.8661. In addition, the “Replicate_2 (LOPAC screen with protease)” value under setting [6] is 86.9147.

As to `CC(=O)O.NC(=NCCC[C@H](N)C(=O)O)NO` [NG-Hydroxy-L-arginine acetate], under setting [16], the mean is 2.232. The same compound came in with a Replicate_1 under setting [17] of 2.489. The compound also came in with a Replicate_2 under setting [18] of 1.975.

`C[C@H](Cc1ccccc1)Nc1ncnc2c1ncn2[C@@H]1O[C@H](CO)[C@@H](O)[C@H]1O` [R(-)-N6-(2-Phenylisopropyl)adenosine] gave a mean under setting [13] of 0.4967. The compound further returned a Replicate_1 under setting [14] of 2.165. Moreover, the Replicate_2 under setting [15] was -1.171.

`COc1cc([C@@H]2c3cc4c(cc3[C@H](O)[C@H]3COC(=O)[C@H]23)OCO4)cc(OC)c1OC` [Podophyllotoxin]: the inhibition at 5 µM (read-out: Replicate_1) was determined as 3.42%, the inhibition at 5 µM (read-out: Replicate_2) turned out to be 4.17% and the inhibition at 5 µM (read-out: mean) was determined as 3.8%.

For the origin of these results see PMC7587356, “High-Throughput Screening for Inhibitors of the SARS-CoV-2 Protease Using a FRET-Biosensor” (Molecules, 2020).
